Earlier results on 5 molecules are cited in patent US20100120780A1, “TREATMENTS FOR PREMATURE EJACULATION IN HUMANS” (priority 2007, published 2010).

The conditions of series [1]: for accumulation: multiple dose treatment with tramadol.
Series [2] concerns the target μ-opiate receptors (Homo sapiens, UniProt P35372).
The conditions of series [3]: rats.
For series [4] the following is noted: oral administration, Viagra formulation.
Series [5] addresses phosphodiesterase type 5 (PDE5) (Homo sapiens, UniProt O76074). To be noted: PDE5 vs PDE6.
The conditions of series [6]: 0.2M sodium chloride.

Structures can show the parent of a compound that is named as a salt.

μ-opiate receptors, sequence (P35372 whole entry): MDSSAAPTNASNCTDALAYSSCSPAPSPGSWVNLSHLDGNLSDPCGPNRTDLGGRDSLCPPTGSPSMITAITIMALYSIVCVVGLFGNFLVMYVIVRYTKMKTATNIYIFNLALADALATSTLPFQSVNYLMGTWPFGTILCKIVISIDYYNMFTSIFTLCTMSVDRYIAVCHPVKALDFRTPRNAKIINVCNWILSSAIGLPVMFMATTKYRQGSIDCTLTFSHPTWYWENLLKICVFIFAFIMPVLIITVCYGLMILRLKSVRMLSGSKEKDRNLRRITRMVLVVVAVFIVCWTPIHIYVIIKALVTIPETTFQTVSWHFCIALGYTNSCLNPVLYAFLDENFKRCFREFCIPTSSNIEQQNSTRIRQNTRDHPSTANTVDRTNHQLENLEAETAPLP

As for `COc1cccc(C2(O)CCCCC2CN(C)C)c1` (racemic) [tramadol, (+/−)-trans (RR,SS)-2-[(di-methylamino)methyl]-1-(3-methoxyphenyl)cyclohexanol], for the setting “single oral dose of tramadol 100 mg”, the “duration of the analgesic effect” value is “about 6 hours”. In addition, the accumulation entry in series [1] was “approximately 2 fold”. For the same molecule, in series [1] (oral administration), the “time to peak serum concentrations” value is ≤ 2 h. The “affinity for μ-opiate receptors, fold less than codeine” value in series [2] (relative to codeine) is recorded as 10 fold. Besides, the “affinity for μ-opiate receptors, fold less than d-propoxyphene” value in series [2] (relative to d-propoxyphene) is listed as 100 fold. For the same molecule, the “affinity for μ-opiate receptors compared to dextromethorphan” value in series [2] (relative to dextromethorphan) was “equivalent”. Moreover, the “affinity for μ-opiate receptors, fold less than morphine” value in series [2] (relative to morphine) was 6,000 fold.
Take `CN(C)C[C@H]1CCCC[C@]1(O)c1cccc(O)c1` [M1 derivative, O-desmethyltramadol]: the “analgesic potency relative to the parent drug” value (relative to tramadol) was “at least twice”. Besides, the accumulation entry in series [1] is given as “approximately 2 fold”.
Take `COc1cc(CNC(=O)CCCCC=CC(C)C)ccc1O` [capsaicin, 8-methyl-N-vanillyl-6-nonenamide]: the “time to distribution to the brain, spinal cord, liver and blood” value in series [3] (intravenous administration) was ≤ 20 min. Further, the “absorption in the jejunum” value in series [3] (oral dosing, after 3 hours) was 85%.
On to `CCCc1nn(C)c2c(=O)[nH]c(-c3cc(S(=O)(=O)N4CCN(C)CC4)ccc3OCC)nc12` [sildenafil, 1-[[3-(6,7-dihydro-1-methyl-7-oxo-3-propyl-1H-pyrazolo[4,3-d]pyrimidin-5-yl)-4-ethoxyphenyl]sulfonyl]-4-methyl piperazine], for which the absolute bioavailability entry in series [4] is reported as “about 40%”. Further, the “potency for PDE5 compared to PDE6” value in series [5] is listed as “about 10 fold”.
Take `COc1ccc(C(CN(C)C)C2(O)CCCCC2)cc1` (racemic) [Venlafaxine hydrochloride, (R/S)-1-[2-(dimethylamino)-1-(4-methoxyphenyl)ethyl]cyclohexanol]: the “octanol:water partition coefficient” value in series [6] is 0.43.
